Test results: patent publication US10399966B2, “Compounds for treatment of trypanosomes and neurological pathogens and uses thereof” (The University of North Carolina at Chapel Hill, priority 2016, dated 2019)
Read-outs that look alike come from different tables or passages of the source. Marks after values point to notes of the source that are not given here.

Assays:
T. b. brucei = test: In vitro antitrypanosomal activity against T. brucei (growth inhibition); type: cell-based, Trypanosoma brucei; conditions: Trypanosoma brucei
In short: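 Dose-response EC50 against T. brucei parasites with 0.4% DMSO final, 48 h at 37 °C; parasite density quantified by ATP luminescence (CellTiter-Glo).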

Trypanosoma cruzi = test: Efficacy against T. cruzi in vitro; type: cell-based; conditions: Trypanosoma cruzi
[1] = Metabolic stability in human liver microsomes; type: in vitro ADME
Protocol: (§1) Metabolic stability was evaluated using liver microsomes derived from mouse and human sources. Microsomal incubations were carried out according to a protocol described previously (Wang et al., Antimicrob. Agents Chemother. 54:2507 (2010)) with modifications. Briefly, substrate stock solutions were prepared in DMSO and DMSO content was kept at 0.5% (v/v) in final incubations. Incubation mixtures ([…]), liver microsomes (0.5 mg/mL) from mouse (pool of 1000, CD-1 male mouse) or human (pool of 50, mixed gender) (XenoTech LLC, Lenexa, Kans.) in a phosphate buffer (100 mM, pH 7.4) containing 3.3 mM MgCl2. After a 5-minute pre-equilibration period at 37° C., reactions (in triplicate) were initiated by adding the NADPH cofactor (1 mM). For NADPH-independent reactions, the cofactor was replaced with water. Aliquots (10 μl) of the reaction mixtures were removed at 0, 15, 30, and 60 minutes and individually mixed with 200 μL of ice-cold acetonitrile containing internal standard. The mixtures were vortex-mixed, and precipitated protein was removed by centrifugation at 2,250×g for 15 min. The supernatant fractions were dried using a 96-well microplate evaporator (Apricot Designs Inc., Covina, Calif.) under N2 at 50° C. and reconstituted with 100 μL 50% methanol containing 0.1% trifluoroacetic acid before UPLC-MS/MS analysis. In vitro half-life (t1/2) was obtained by analyzing the substrate concentration vs. incubation time curve using the one-phase exponential decay model (GraphPad Prism® 5.0, San Diego, Calif.).

[2] = Metabolic stability in mouse liver microsomes; type: in vitro ADME
Protocol: as §1

[3] = Distribution between mouse plasma and brain (brain penetration, ip); type: in vivo; conditions: for Kp at 1 h / concentration at 60 min: mouse, in vivo, 5 mg/kg; for Kp at 1 h: read-out: Average brain/plasma ratio
In short: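 Mice (n=3) received a single 5 mg/kg ip dose in 7% Tween 80, 3% ethanol, 5% DMSO, 0.9% saline and were sacrificed 1 h post-dose. Plasma and acetonitrile brain homogenates analysed by LC/MS/MS; brain concentration corrected for 2.5% vasculature volume, assuming 1 g = 1 mL.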

[4] = Mouse oral pharmacokinetics; type: in vivo
Protocol: […] Experiments were performed with groups of three mice per compound. Plasma was separated and extracted with acetonitrile for measurements of compound concentrations by liquid chromatography/tandem mass spectrometry.

[5] = Cytotoxicity against HepG2 cells; conditions: human
human hepatocytes HepG2 = test: Cytotoxicity against HepG2 cells; conditions: for EC50: Homo sapiens, HepG2, read-out: HepG2 EC50
in vitro = conditions: human
Protocol: (§2) The selectivity of each compound for the parasite over each of the two cell lines was calculated.

[6] = tested on: human lymphocytes CRL-8155; test: Cytotoxicity against CRL-8155 cells; conditions: read-out: CRL-8155 EC50; concentration required to inhibit growth by 50%; human lymphoblasts
Protocol: as §2

[7] = tested on: human lymphocytes CRL-8155
Protocol: as §2

[8] = Table 12, after 60 min (where t1/2 > 60 min)
[9] = Table 8, groups of 3 mice (compound 3: ± SEM of 6 mice)
[10] = Table 14, mice, single ip dose 5 mg/kg, one hour post-dose, ± SEM of 3 mice (compound 3: 6 mice)

Structure (SMILES): O=C(Nc1ccc2sc(-c3ccc(F)c(F)c3)nc2c1)N1CCC(F)C1 (racemic) [Compound 3, 2-(3,4-Difluorophenyl)-5-(3-fluoro-N-pyrrolidylamido)benzothiazole]
- EC50 (T. b. brucei; Table 6, read-out: T. brucei EC50): 51.9 nM
- EC50 (T. b. brucei; Table 8, read-out: T. brucei EC50): 51.9 nM
- EC50 (T. b. brucei; Table 11, read-out: T. b. brucei EC50): 51.9 nM
- EC50 (T. b. brucei; Table 12, read-out: T. b. brucei EC50): 51.9 nM
- EC50 (T. b. brucei; Table 9, read-out: T. brucei EC50): 51.9 nM
- EC90 (T. b. brucei; Table 9, read-out: T. brucei EC90): 91.9 nM
- EC50 (Trypanosoma cruzi; Table 6, read-out: T. cruzi EC50): 91.9 nM
- EC50 (Trypanosoma cruzi; Table 10, read-out: T.cruzi EC50): 177 nM
- EC90 (Trypanosoma cruzi; Table 10, read-out: T.cruzi EC90): 525 nM
- Human microsomes, percentage of compound remaining [1, 8]: 99%
- half-life at 3 μM ([1]; both sexes, human, liver microsomes, pH 7.4, Table 5, read-out: Microsome t1/2 (min) Human): > 60 min
- half-life at 1.5 μM ([1]; both sexes, human, liver microsomes, pH 7.4, Table 12, 37° C., NADPH (1 mM), microsomes 0.5 mg/mL, test compounds 1.5 μM, read-out: Human microsomes t1/2): > 1 h
- Mouse microsomes, percentage of compound remaining [2, 8]: 52%
- half-life at 3 μM ([2]; male, CD-1, mouse, liver microsomes, pH 7.4, Table 5, read-out: Microsome t1/2 (min) Mouse): 60 min
- half-life at 1.5 μM ([2]; male, CD-1, mouse, liver microsomes, pH 7.4, Table 12, 37° C., NADPH (1 mM), microsomes 0.5 mg/mL, test compounds 1.5 μM, read-out: Mouse microsomes t1/2): > 1 h
- Average [compound] brain [3, 9]: 5.48 ± 0.683^a μM
- Average [compound] plasma [3, 9]: 3.26 ± 0.630^a μM
- [compound]Brain [3, 10]: 5.48 ± 0.683^b μM
- [compound]Plasma [3, 10]: 3.26 ± 0.630^b μM
- Kp at 1 h ([3]; Table 5, mouse brain penetration (60 min), n = 3): 1.52 ± 0.0416
- concentration at 60 min ([3]; Table 5 r15, mouse brain penetration (60 min), n = 3): 2.78 ± 0.652 µM
- concentration at 60 min ([3]; Table 5 r17 (second line so headed), mouse brain penetration (60 min), n = 3): 4.22 ± 0.974 µM
- Kp at 1 h ([3]; Table 8, groups of 3 mice): 2.11 ± 0.669
- Mouse oral PK Tlast ([4]; Table 5): 480 min
- Mouse oral PK Average AUC ([4]; Table 5, n = 3): 3847 ± 466 (n = 3) min * μmol/L
- Cmax ([4]; Table 13, mice, single 50 mg/kg oral gavage, vehicle Tween 80 (7%), EtOH (3%), DMSO (5%) in 0.9% NaCl, ± SEM of 3 mice, read-out: Cmax): 10 ± 0.65 µM
- Cmax ([4]; mouse, plasma, po, 50 mg/kg, Table 5, n = 3, read-out: Mouse oral PK Average Cmax): 10 ± 1.1 µM
- Tmax ([4]; mouse, plasma, po, 50 mg/kg, Table 5, read-out: Mouse oral PK Tmax (converted)): 1 h
- EC90 [5]: > 50000 nM
- EC50 (human hepatocytes HepG2): > 50000 nM
- melting point: 209 to 210 °C
- EC90 (in vitro): > 50000 nM
- EC50 [6]: > 50000 nM

Structure (SMILES): CCN(CC)CCCC(C)Nc1c2ccc(Cl)cc2nc2ccc(OC)cc12 (stereo not drawn) [quinacrine, reference compound]
- EC50 (human hepatocytes HepG2): 10400 nM
- EC90 (human hepatocytes HepG2; human): 18200 nM
- EC90 [7]: 9940 nM
